We go through twelve compounds from ChEMBL document CHEMBL1208678, “Synthesis of some new 4(3H)-quinazolinone-2-carboxaldehyde thiosemicarbazones and their metal complexes and a study on their anticonvulsant, analgesic, cytotoxic and antimicrobial activities - part-1” (Eur J Med Chem, 2010).

Usually MIC stands for the lowest concentration that inhibits growth of the organism. A lower MIC goes with greater potency.

Converted amounts (≈) assume the structure as drawn. The source made the active and inactive calls. The rule behind the calls is not given here.

In data set [1] the test system is Mus musculus. Description: Acute toxicity in mouse assessed as mortality up to 1200 mg/kg, po. The format is organism-based. Details: dose 1200 mg/kg, route oral. The settings on record: in vivo.
Data set [2] has as its system Bacillus subtilis. Description: Antibacterial activity against Bacillus subtilis ATCC 6633 at 100 ug after 24 hrs by paper disc method. The settings on record: ATCC 6633, 24 h, read-out: IZ. It is filed as functional.
The subject of data set [3] is Staphylococcus aureus. The data set is described as follows: Antibacterial activity against Staphylococcus aureus ATCC 6538 at 100 ug after 24 hrs by paper disc method. The format is functional. The settings on record: ATCC 6538, 24 h, read-out: IZ.
Data set [4] relates to Escherichia coli. Description: Antibacterial activity against Escherichia coli ATCC 7839 at 100 ug after 24 hrs by paper disc method. The settings on record: ATCC 7839, 24 h, read-out: IZ. The format is functional.
A further data set has as its system Pseudomonas aeruginosa. The data set is described as follows: Antibacterial activity against Pseudomonas aeruginosa ATCC 9027 at 100 ug after 24 hrs by paper disc method. The format is functional. The settings on record: ATCC 9027, 24 h, read-out: IZ.
A further data set deals with Aspergillus ochraceus. The data set is described as follows: Antifungal activity against Aspergillus ochraceus Wilhelm at 100 ug after 24 hrs by paper disc method. The format is functional. The settings on record: for zone of inhibition at 100 µg/disc: read-out: IZ.
Data set [5] concerns Fusarium oxysporum. The data set is described as follows: Antifungal activity against Fusarium oxysporum at 100 ug after 24 hrs by paper disc method. It is filed as functional. The settings on record: for zone of inhibition at 100 µg/disc: read-out: IZ.
For data set [6], the system named is Mus musculus. Description: Analgesic activity in Swiss albino mouse assessed as reaction time at 50 mg/kg, ip after 0.5 hrs by hotplate method (reference value: 7.4 seconds). The settings on record: route intraperitoneal. The format is functional.
Data set [7] has as its system Mus musculus. The data set is described as follows: Analgesic activity in Swiss albino mouse assessed as reaction time at 50 mg/kg, ip after 1 hr by hotplate method (reference value: 7.5 seconds). The settings on record: route intraperitoneal. The format is functional.
In data set [8] the test system is Bacillus subtilis. Description: Antibacterial activity against Bacillus subtilis ATCC 6633 after 24 hrs by twofold serial dilution method. It is filed as functional. The settings on record: ATCC 6633, 24 h.
In data set [9] the test system is Staphylococcus aureus. The data set is described as follows: Antibacterial activity against Staphylococcus aureus ATCC 6538 after 24 hrs by twofold serial dilution method. It is filed as functional. The settings on record: ATCC 6538, 24 h.
The subject of data set [10] is Escherichia coli. The data set is described as follows: Antibacterial activity against Escherichia coli ATCC 7839 after 24 hrs by twofold serial dilution method. It is filed as functional. The settings on record: ATCC 7839, 24 h.
Data set [11] concerns Fusarium oxysporum. The data set is described as follows: […] activity against Fusarium oxysporum after 24 hrs by twofold serial dilution method. The format is functional.
For data set [12], the system named is Rattus norvegicus. The data set is described as follows: Anticonvulsant activity against pentylenetetrazole-induced seizure in Wistar rat assessed as shock latency time at 50 mg/kg, ip administered 45 mins before pentylenetetrazole challenge (reference value: 118 seconds). It is filed as functional. The settings on record: route intraperitoneal.
Data set [13] has as its system Rattus norvegicus. The data set is described as follows: Anticonvulsant activity against pentylenetetrazole-induced seizure in Wistar rat assessed as duration of seizure at 50 mg/kg, ip administered 45 mins before pentylenetetrazole challenge (reference value: 312 seconds). The format is functional. The settings on record: route intraperitoneal.
Data set [14] concerns Rattus norvegicus. Description: Anticonvulsant activity in Wistar rat assessed as protection against pentylenetetrazole-induced seizure at 50 mg/kg, ip administered 45 mins before pentylenetetrazole challenge. Details: dose 50 mg/kg. It is filed as functional, organism-based.
Data set [15] is described as follows: Cytotoxicity against mouse EAC cells assessed as cell death at 25 ug/ml after 2 hrs by Trypan blue exclusion method. The format is functional, Ehrlich.
Data set [16] in a line: Cytotoxicity against mouse EAC cells assessed as cell death at 50 ug/ml after 2 hrs by Trypan blue exclusion method. The format is functional, Ehrlich.
Data set [17] can be described thus: Cytotoxicity against mouse EAC cells assessed as cell death at 100 ug/ml after 2 hrs by Trypan blue exclusion method. It is filed as functional, Ehrlich.
The subject of data set [18] is Rattus norvegicus. The data set is described as follows: Anticonvulsant activity against pentylenetetrazole-induced seizure in Wistar rat assessed as shock latency time at 2 mg/kg, ip administered 45 mins before pentylenetetrazole challenge (reference value: 118 seconds). The settings on record: route intraperitoneal. The format is functional.
For data set [19], the system named is Rattus norvegicus. The data set is described as follows: Anticonvulsant activity against pentylenetetrazole-induced seizure in Wistar rat assessed as duration of seizure at 2 mg/kg, ip administered 45 mins before pentylenetetrazole challenge (reference value: 312 seconds). The format is functional. The settings on record: route intraperitoneal.
Data set [20] has as its system Rattus norvegicus. The data set is described as follows: Anticonvulsant activity in Wistar rat assessed as protection against pentylenetetrazole-induced seizure at 2 mg/kg, ip administered 45 mins before pentylenetetrazole challenge. It is filed as functional, organism-based. Details: dose 2 mg/kg.
Data set [21] relates to Mus musculus. Description: Analgesic activity in Swiss albino mouse assessed as reaction time at 2 mg/kg, ip after 0.5 hrs by hotplate method (reference value: 7.4 seconds). The settings on record: route intraperitoneal. It is filed as functional.
Data set [22] relates to Mus musculus. Description: Analgesic activity in Swiss albino mouse assessed as reaction time at 2 mg/kg, ip after 1 hr by hotplate method (reference value: 7.5 seconds). The format is functional. The settings on record: route intraperitoneal.

As to `CCNC(=S)N/N=C/c1nc2ccc(I)cc2c(=O)n1-c1ccccc1`, in the data set on Mus musculus [1], the Activity entry is given as “Non-toxic”. The zone of inhibition at 100 µg/disc in the data set with Bacillus subtilis [2] is 0 mm; with Staphylococcus aureus [3], 0 mm; with Escherichia coli [4] it was 0 mm; in the data set with Pseudomonas aeruginosa, 0 mm; with Aspergillus ochraceus, 0 mm; with Fusarium oxysporum [5] it was 15 mm.

For `NC(=S)N/N=C/c1nc2ccc(I)cc2c(=O)n1-c1ccccc1`, the Activity result in the data set on Mus musculus [1] is on record as “Non-toxic”. In addition, the Time is 18.6 s in the data set on Mus musculus [6] and 26.6 s in the data set on Mus musculus [7]. For the same compound, the zone of inhibition at 100 µg/disc in the data set on Bacillus subtilis [2] was 9 mm; in the data set on Staphylococcus aureus [3], 8 mm; in the data set with Escherichia coli [4], 0 mm; with Pseudomonas aeruginosa, 0 mm; with Aspergillus ochraceus it was 0 mm; in the data set on Fusarium oxysporum [5] it was 23 mm. In addition, the MIC with Bacillus subtilis [8] worked out at 100 µg/mL (≈ 223 µM); in the data set on Staphylococcus aureus [9] it was 100 µg/mL (≈ 223 µM); against Escherichia coli [10], 100 µg/mL (≈ 223 µM); in the data set with Fusarium oxysporum [11] it was 12.5 µg/mL (≈ 27.8 µM).

As for `CCn1cc(C(=O)O)c(=O)c2cc(F)c(N3CCNCC3)cc21` [NORFLOXACIN], the zone of inhibition at 100 µg/disc in the data set with Bacillus subtilis [2] came out at 35 mm; in the data set with Staphylococcus aureus [3] it was 27 mm; in the data set with Escherichia coli [4], 17 mm; with Pseudomonas aeruginosa, 15 mm.

As for NYSTATIN, the inhibition zone (IZ) with Aspergillus ochraceus came to 12 mm; with Fusarium oxysporum [5], 20 mm.

Turning to `CC[C@H]1OC(=O)[C@H](C)[C@@H](O[C@H]2C[C@@](C)(OC)[C@@H](O)[C@H](C)O2)[C@H](C)[C@@H](O[C@@H]2O[C@H](C)C[C@H](N(C)C)[C@H]2O)[C@](C)(O)C[C@@H](C)C(=O)[C@H](C)[C@@H](O)[C@]1(C)O` [ERYTHROMYCIN], the figures for the zone of inhibition at 100 µg/disc in the data set on Bacillus subtilis [2], in the data set on Escherichia coli [4] and in the data set on Pseudomonas aeruginosa were 30 mm, 15 mm and 16 mm, respectively.

For `CNC(=S)N/N=C/c1nc2ccc(I)cc2c(=O)n1-c1ccccc1`, the Activity result in the data set on Mus musculus [1] is “Non-toxic”. Besides, in the data set on Fusarium oxysporum [11], inhibition of growth (MIC) required 6 µg/mL (≈ 13 µM).

In the case of `NC(=S)N/N=C/c1nc2ccc(I)cc2c(=O)n1-c1ccc(F)cc1`, the Activity result with Mus musculus [1] is recorded as “Non-toxic”; in data set [15], 0%; in data set [16] it was 10%; in [17], 40%. Further, the Time with Rattus norvegicus [12] amounted to 660 s; in the data set on Rattus norvegicus [13], 760 s; in the data set with Mus musculus [6] it was 19.2 s; in the data set with Mus musculus [7] it was 27.2 s. In the data set with Rattus norvegicus [14], the outcome was inactive. Further, the MIC in the data set with Fusarium oxysporum [11] was 12.5 µg/mL (≈ 26.8 µM).

On to `CCNC(=S)N/N=C/c1nc2ccc(I)cc2c(=O)n1-c1ccc(F)cc1`, for which, in the data set on Mus musculus [1], the Activity entry was “Non-toxic”. Also, the figures for the Time with Rattus norvegicus [12] and with Rattus norvegicus [13] were 280 s and 520 s, respectively. For the same compound, the outcome in the data set with Rattus norvegicus [14] was inactive.

As for `CNC(=S)N/N=C/c1nc2ccc(I)cc2c(=O)n1-c1ccc(F)cc1`, the Activity entry in the data set on Mus musculus [1] is recorded as “Non-toxic”; in data set [15], 0%; in data set [16], 0%; in [17] it was 20%. For the same compound, the Time is given as 380 s in the data set with Rattus norvegicus [12], 580 s in the data set with Rattus norvegicus [13], 11.1 s with Mus musculus [6] and 19.2 s with Mus musculus [7]. Further, in the data set with Rattus norvegicus [14], the outcome was inactive.

On to `CN1C(=O)CN=C(c2ccccc2)c2cc(Cl)ccc21` [DIAZEPAM], for which the Time with Rattus norvegicus [18] is given as 3600 s; in the data set on Rattus norvegicus [19] it was 0 s; in the data set on Mus musculus [21] it was 62.9 s; in the data set on Mus musculus [22] it was 65.9 s. For the same compound, the result in the data set on Rattus norvegicus [20] was Active.

`O=c1c2cc(I)ccc2nc(/C=N/NC(=S)Nc2ccccc2)n1-c1ccc(F)cc1`: the Activity result is listed as “Non-toxic” with Mus musculus [1], 0% in data set [15], 0% in data set [16] and 0% in data set [17]. Besides, the Time with Rattus norvegicus [12] was found to be 120 s; in the data set with Rattus norvegicus [13] it was 350 s; with Mus musculus [6] it was 8 s; in the data set on Mus musculus [7], 13.5 s. In the data set on Rattus norvegicus [14], the outcome was inactive. For the same compound, the zone of inhibition at 100 µg/disc was found to be 0 mm with Bacillus subtilis [2]; 0 mm with Staphylococcus aureus [3]; 8 mm in the data set on Escherichia coli [4]; 0 mm with Pseudomonas aeruginosa; 0 mm in the data set with Aspergillus ochraceus; 25 mm in the data set on Fusarium oxysporum [5].

Consider `O=c1c2cc(I)ccc2nc(/C=N/NC(=S)Nc2ccccc2)n1-c1ccccc1`, for which the Activity result in the data set on Mus musculus [1] was “Non-toxic”. Further, the Time in the data set on Mus musculus [6] amounted to 10.2 s; in the data set on Mus musculus [7], 19.2 s.
